According to US9849178B2, “Combination of carotenoids and epi-lutein” (Gupron GmbH, priority 2009, dated 2017):
Like-named read-outs stand apart in the source and are kept apart here. Each block holds one molecule with its values, some of them ahead of it.

Experiments:
[1] = Pharmacokinetics of lutein and zeaxanthin with/without epi-lutein after intravenous administration; format: in vivo, wistar rats
Procedure: 14 days wash-out period before this study
Subject: 3 wistar rats each group
Feeding type: intravenous administration
Group A: 4 mg lutein/Kg body weight
Group B: (2 mg lutein+2 mg epi-lutein)/Kg body weight
Group C: 4 mg zeaxanthin/Kg body weight
Group D: (2 mg zeaxanthin 2 mg epi-lutein)/Kg body weight
Blood sampling: 15, 30, 60 minutes, 3 and 6 hours after feeding

[2] = Epi-lutein study: plasma levels after oral administration (gavage) for 7 consecutive days; format: in vivo, Rats, Sprague-Dawley; conditions: for Cmax: day 7, rat plasma; for AUC / AUC(0-t): rat, plasma; for AUC: read-out: AUC0-τ; for AUC(0-t): read-out: AUC0-12 h; for AUC0-12 h (dose corrected) / AUC0-τ (dose corrected) / Cmax (dose corrected): dose corrected to 0.1 mg Lutein/kg BW
Procedure: [table] Study Design: Oral administration (gavage) of Treatment I for 7 consecutive days in 5 rats followed by a 14 days wash-out period and oral administration (gavage) of Treatment II for 7 consecutive days Blood Sampling: On day 7 of treatment prior to treatment and 15 min, 1, 3, 6, 9, 12 and 24 hours after treatment. About 400 μL blood were be transferred to Vacutainer tubes containing EDTA. Whole blood samples were centrifuged, as soon as possible from the designated time of collection, at 1200 g for approximately 10 minutes. All plasma samples (at least 200 μL) were be stored deep frozen at ≦−30° C., until shipping on dry ice. [table] Plasma Analysis: Lutein, Epilutein, Zeaxanthin and Oxidized metabolites

[3] = Treatment II (mixture together with epi-lutein)

T½ ([1]; rat, in vivo, iv): 5 h | plasma half life after treatment with epi-lutein ([1]; rat, in vivo, iv): substantially prolonged
Structure (SMILES): CC1=C(/C=C/C(C)=C/C=C/C(C)=C/C=C/C=C(C)/C=C/C=C(C)/C=C/C2=C(C)C[C@@H](O)CC2(C)C)C(C)(C)C[C@H](O)C1 [Zeaxanthin, (3R,3′R)-beta, beta carotene-3,3′-diol]

AUC0-12 h ([2]; Treatment II (0.147 mg lutein + 0.135 mg epi-lutein/kg BW, oral gavage), day 7): 3724 ng·h/mL | Cmax ([2]; Treatment II (0.147 mg lutein + 0.135 mg epi-lutein/kg BW, oral gavage)): 428 ng/mL | AUC0-τ ([2]; Treatment II (0.147 mg lutein + 0.135 mg epi-lutein/kg BW, oral gavage), day 7, τ 24 hours): 6286 ng·h/mL
Structure (SMILES): CC1=C[C@@H](O)CC(C)(C)[C@H]1/C=C/C(C)=C/C=C/C(C)=C/C=C/C=C(C)/C=C/C=C(C)/C=C/C1=C(C)C[C@@H](O)CC1(C)C [Epi-Lutein, (3R,3′S,6′R)-lutein]

increase in the pharmacokinetic parameters of lutein, dose corrected ([2]; 0.1 mg lutein/kg BW mixed with approximately 0.1 mg epi-lutein/kg BW vs single compound, time interval 0-12 hours): about 100% | Cmax ([2]; Sprague-Dawley, 0.282 mg/kg BW, Treatment I (0.282 mg lutein/kg BW, oral gavage), read-out: Cmax): 941 ng/mL | AUC ([2]; Sprague-Dawley, 0.282 mg/kg BW, Treatment I (0.282 mg lutein/kg BW, oral gavage), day 7, τ 24 hours): 18100 ng·h/mL | AUC(0-t) ([2]; Sprague-Dawley, 0.282 mg/kg BW, Treatment I (0.282 mg lutein/kg BW, oral gavage), day 7): 9780 ng·h/mL | AUC ([2]; Sprague-Dawley, Treatment II (0.147 mg lutein + 0.135 mg epi-lutein/kg BW, oral gavage), day 7, τ 24 hours): 14300 ng·h/mL | AUC(0-t) ([2]; Sprague-Dawley, Treatment II (0.147 mg lutein + 0.135 mg epi-lutein/kg BW, oral gavage), day 7): 9340 ng·h/mL | Cmax ([2]; Sprague-Dawley, Treatment II (0.147 mg lutein + 0.135 mg epi-lutein/kg BW, oral gavage), read-out: Cmax): 939 ng/mL | AUC0-12 h (dose corrected) ([2]; Treatment I (pure compound)): 3261 ng × h × ml^−1/0.1 mg Lut/kg B | AUC0-τ (dose corrected) ([2]; Treatment I (pure compound)): 6050 ng × h × ml^−1/0.1 mg Lut/kg B | Cmax (dose corrected) ([2]; Treatment I (pure compound)): 314 [ng/ml]/0.1 mg Lut/kg BW | AUC0-12 h (dose corrected) [2, 3]: 6230 ng × h × ml^−1/0.1 mg Lut/kg B | AUC0-τ (dose corrected) [2, 3]: 9560 ng × h × ml^−1/0.1 mg Lut/kg B | Cmax (dose corrected) [2, 3]: 626 [ng/ml]/0.1 mg Lut/kg BW | AUC(0-inf) ([1]; rat, 4 mg/kg, heading: AUC0-inf, wistar rats, intravenous, A 4 mg lutein/Kg, B 2 mg lutein+2 mg epi-lutein/Kg, C 4 mg zeaxanthin/Kg, D 2 mg zeaxanthin+2 mg epi-lutein/Kg, lutein (A,B) or zeaxanthin (C,D) in plasma): 21300 ng·h/mL | AUC(0-t) ([1]; rat, 4 mg/kg, heading: AUC0-t, wistar rats, intravenous, A 4 mg lutein/Kg, B 2 mg lutein+2 mg epi-lutein/Kg, C 4 mg zeaxanthin/Kg, D 2 mg zeaxanthin+2 mg epi-lutein/Kg, lutein (A,B) or zeaxanthin (C,D) in plasma): 11700 ng·h/mL | half-life ([1]; rat, 4 mg/kg, wistar rats, intravenous, A 4 mg lutein/Kg, B 2 mg lutein+2 mg epi-lutein/Kg, C 4 mg zeaxanthin/Kg, D 2 mg zeaxanthin+2 mg epi-lutein/Kg, lutein (A,B) or zeaxanthin (C,D) in plasma, read-out: T½): 5.08 h | plasma half life after treatment with epi-lutein ([1]; wistar rats, intravenous, with vs without epi-lutein): substantially prolonged
Structure (SMILES): CC1=C[C@H](O)CC(C)(C)[C@H]1/C=C/C(C)=C/C=C/C(C)=C/C=C/C=C(C)/C=C/C=C(C)/C=C/C1=C(C)C[C@@H](O)CC1(C)C [Lutein, (3R,3′R,6′R)-beta, epsilon-carotene-3,3′-diol]
